Reference: patent US20160220527A1, “KINASE INHIBITORS FOR THE TREATMENT OF CANCER” (Pitney Pharmaceuticals Pty Limited, priority 2012, published 2016)
Values belong to the compound of their own block, whether it stands above or below them.

How the values were obtained:
[1] = test system: HCT-116; assay: SRB cell proliferation assay; type: cell-based; conditions: Homo sapiens; HCT-116, colorectal cancer
Description: (§1) The human ovarian cancer cell lines OVCAR-3, SKOV-3 and A2780 and primary cells human umbilical vein endothelial cells (HUVEC) and all other cell lines were obtained from the American Type Culture Collection (ATCC) and maintained according to their instructions. Astrocytes and glioma cell lines were kindly gifted by Dr. Kerry McDonald from Lowy Cancer Research Centre, University of New South Wales, Australia.
(§2) Cell proliferation was assessed using the sulforhodamine B (SRB) assay. Cells seeded in 96-well plate (2,000-3,000 cell/well) were treated with MPL (0, 1, 5, 10, 25, 50 and 100 μmol/L) for 72 h. Cells were then fixed, washed and stained with 100 μl of 0.4% (w/v) SRB dissolved in 1% acetic acid. Unbound dye was removed by five washes with 1% acetic acid before air drying. Bound SRB was solubilized with 100 μl of 10 mM Tris base (pH 10.5) and the absorbance read at 570 nm. Exactly the same procedure was used to assess MPL-SO2. Both agents were dissolved in ethanol and diluted with media to give the final concentrations required for cell culture assays.

[2] = test system: HT-29 5m11; assay: SRB cell proliferation assay; type: cell-based; conditions: Homo sapiens; HT-29 5m11, colorectal cancer
Description: as §1, §2

[3] = test system: HT-29; assay: SRB cell proliferation assay; type: cell-based; conditions: Homo sapiens; HT-29, colorectal cancer
Description: as §1, §2

[4] = test system: HaCat; assay: SRB cell proliferation assay; type: cell-based; conditions: Homo sapiens, keratinocyte
Description: as §1, §2

[5] = test system: LN-18; assay: SRB cell proliferation assay; type: cell-based; conditions: Homo sapiens; LN-18, glioma
Description: as §1, §2

[6] = test system: MCF-7; assay: SRB cell proliferation assay; type: cell-based; conditions: Homo sapiens, MCF7, MCF-7, breast cancer, 72 h
Description: as §1, §2

[7] = test system: SW-876; assay: SRB cell proliferation assay; type: cell-based; conditions: SW-876, liposarcoma
Description: as §1, §2

[8] = test system: T98G; assay: SRB cell proliferation assay; type: cell-based; conditions: Homo sapiens, glioma
Description: as §1, §2

[9] = test system: cancer cell lines; assay: SRB cell proliferation assay, comparison across cell lines; type: cell-based
Description: as §2

[10] = test system: OVCAR-3 or A2780 cells; assay: Colony formation assay; type: cell-based, human; conditions: higher concentrations of MPL; 72 h exposure, 2 weeks drug free
Description: For colony formation assay, 5×10^6 cells, such as OVCAR-3 or A2780 cells, were plated in 100 mm Petri dishes and allowed to attach overnight. Media were aspirated off and exponentially growing cells were incubated with various concentrations of MPL for 72 h. At this point, the medium was aspirated, the dishes were washed with PBS, and drug free medium was added to each plate. Media were changed twice weekly for 3 weeks. Following this, plates were gently washed with PBS and cells were fixed with 100% ethanol and stained with a 0.5% solution of filtered crystal violet. Colonies consisting of more than 50 cells were counted under an inverted microscope.
To determine the effect of MPL on cell integrity and capacity to rid itself from drug effects following drug exposure and withdrawal, cells were incubated with MPL (0, 5, 10, 25 μM) for 72 h, washed with PBS, transferred to agar plates, cultured with growth medium and incubated under standard conditions for 2 weeks. Cells were then fixed with 100% methanol and stained with 1% crystal violet. Colonies (Cluster of cells greater than 50) were counted under microscope (magnification ×5). Number of colonies counted for different experimental groups is expressed as percentage of the control (FIG. 14).

[11] = test system: OVCAR-3 or A2780 cells; assay: Cell cycle analysis by flow cytometry; type: cell-based, human; conditions: 25 μM MPL
Description: The effect of MPL on the cell cycle was determined using standard flow cytometry analysis protocols and procedures. Briefly, 0.7×10^6 million cells seeded in 25 cm^3 flasks and allowed to adhere overnight were treated with MPL for 24 or 48 h. Cells were collected with trypsinization and pooled with the cells floating in the medium. The cell suspensions were centrifuged, washed with PBS and fixed with methanol. Cells were then washed, resuspended in propodium iodide and ribonuclease A in PBS for 30 min at room temperature and analyzed by flow cytometry (Becton Dickinson FACSort).

[12] = test system: cdk2, cdk4, cyclins A, and E; assay: Western blot of cell cycle regulatory proteins; type: cell-based; conditions: MPL 0, 5, 10, 25 μM
Description: Protein expression in cells was determined using western blot analysis. After treatment with the indicated concentrations of MPL, cell lysates were prepared and probed with antibodies for cdk2, cdk4, cyclin A, cyclin E, PARP-1 (1:1000 dilutions; Cell Signalling Technology), and p53 (1:200 dilutions; Santa Cruz Biotechnology).

[13] = test system: OVCAR-3 or A2780 cells; assay: Cellular ATP levels and ADP/ATP ratio; type: cell-based, human
[14] = test system: U87 glioma cells; assay: Autophagy (vacuole formation, LC3-II); type: cell-based; conditions: chemo-resistant U87 glioma cells
[15] = test system: OVCAR-3 tumors; assay: s.c. OVCAR-3 xenografts in nude mice; type: in vivo; conditions: for s.c. tumor growth: i.p., three times weekly
Description: Female nude mice (6 weeks old) were purchased from Biological Resources (University of New South Wales). Institutional animal ethics approvals covered procedures carried out on mice. Briefly, 2.5×10^6 log-phase growing OVCAR-3 cells were injected s.c. into the left flank of each mouse. Animals were weighed once weekly while their tumor volumes were determined twice weekly. Tumor growth was monitored by caliper measurements of orthogonal diameters, and the estimated tumor volume was calculated based on the formula […], where width is the shorter of the two orthogonal measurements. Based on institutional ethics approval, mice were euthanized before the tumor volume reached 500 mm3. Treatment was initiated on day 8 post tumor cell inoculation when mice were randomized and assigned to one of MPL or vehicle treated groups (5-6 mice per group). MPL was suspended in […] methylcellulose (0.5% w/v HPMC), sterilized by sonnicator and administered every other day either intraperitoneally (i.p) or orally as gavage (100 μL).
In the first pilot trial, the drug was administered i.p. at 2.5 or 25 mg/kg body weight, three times weekly for 2 weeks.
Following the outcome, in the next set of animals, the dose was increased to 25 and 50 mg/kg, three times weekly.
In the last (third) pilot study, mice were treated orally. The doses administered were 50 and 100 mg/kg three times weekly. In all these trials, mice in control groups received similar volume of the vehicle (0.5% HPMC). Tumor histology/immunohistochemistry was performed on formalin fixed tumor slices according to standard procedures.

[16] = test system: nicotinic receptors; assay: MPL antiproliferative effect after pre-treatment with nicotinic agonists or antagonists; type: cell-based; conditions: 30 min pre-treatment, MPL 5 μM, 72 h
Description: Cells were pre-treated (30 min) with increasing concentrations of nicotine, carbachol or the receptor antagonists, atropine, mecamylamine, tubocurarine, and α-bungarotoxin. MPL (5 μM) was added and left in the cell culture incubator for 72 h. Each drug concentration was tested in quadruplicate and each experiment was repeated twice. Combine values (mean±SEM) are presented as % control.

[17] = test system: cancer cell-lines; assay: Thymidine incorporation; type: cell-based
[18] = mammals; cited from earlier work
[19] = test system: A2780; assay: SRB cell proliferation assay; type: cell-based; conditions: Table 3, AAD series, human epithelial ovarian cancer
Description: as §1, §2

[20] = test system: CHO; assay: SRB cell proliferation assay; type: cell-based; conditions: Cricetulus griseus, Table 3, AAD series, Chinese hamster ovarian cells
Description: as §1, §2

[21] = test system: HUVEC; assay: SRB cell proliferation assay; type: cell-based; conditions: Homo sapiens, Table 3, AAD series, human umbilical vein endothelial cells
Description: as §1, §2

[22] = test system: OVCAR-3; assay: SRB cell proliferation assay; type: cell-based; conditions: Table 3, AAD series, human epithelial ovarian cancer
Description: as §1, §2

Compound: C[C@](C#N)(COc1cc(C#N)ccc1C(F)(F)F)NC(=O)c1ccc(SC(F)(F)F)cc1 [MPL, N-[(1S)-1-cyano-2-(5-cyano-2-trifluoromethyl-phenoxy)-1-methyl-ethyl]-4-trifluoromethylsulfanyl-benzamide]
- IC50 [1]: 10.5 ± 0.02 µM
- IC50 [2]: 10.4 µM
- IC50 [3]: 5.86 ± 0.2 µM
- IC50 [4]: 21.2 ± 3.2 µM
- IC50 [5]: 9.38 ± 0.79 µM
- IC50 [6]: 15.4 ± 1.1 µM
- IC50 [7]: 14.6 µM
- IC50 [8]: 18.2 ± 0.61 µM
- sensitivity of chemo-resistant cell lines to antiproliferative action ([9]; ovarian chemo-resistant, glioma temozolomide resistant, breast cancer tamoxifen resistant cells): sensitive
- clonogenic ability [10]: almost complete loss of clonogenic ability
- percentage of cells in G2-M phase [11]: more than three times higher
- expression of cell cycle regulatory proteins [12]: lower levels of cdk2, cdk4, cyclins A, and E
- cellular ratio of ADP/ATP [13]: reduces the cellular ratio of ADP/ATP
- expression of LC3-II (autophagy) [14]: increased expression of LC3-II in a concentration-dependent manner
- tumor tissue histology ([15]; MPL treated tumors from the in vivo trials): extensive necrosis
- s.c. tumor growth ([15]; first trial, 25 mg/kg, female nude mice): particularly effective
- s.c. tumor growth ([15]; second trial, 50 mg/kg compared with 25 mg/kg): more effective in retarding tumor growth
- MPL-induced inhibition of proliferation after pre-treatment with nicotinic agonists or antagonists [16]: neither positively nor negatively affected
- thymidine incorporation into the cell (DNA synthesis) [17]: Blocks thymidine incorporation
- dosage well tolerated [18]: 1000 mg of MPL per kg of body weight per 24 hours

- IC50 [19]: 33.5 ± 8.5 µM
- IC50 [22]: 23.9 ± 1.45 µM
Compound: CC(C#N)(COc1ccccc1Cl)NC(=O)c1ccc(C(F)(F)F)cc1 (centres unmarked) [AAD 450]
- IC50 [20]: 45.9 µM
- IC50 [21]: 96.5 µM

- IC50 [19]: 28 ± 4.5 µM
- IC50 [22]: 20.5 ± 0.5 µM
Compound: CC(C#N)(COc1cc(Cl)ccc1Cl)NC(=O)c1ccc(OC(F)(F)F)cc1 (centres unmarked) [AAD 1154]
- IC50 [20]: 34.8 µM
- IC50 [21]: 61.1 µM

Compound: C[C@](C#N)(COc1cc(C#N)ccc1C(F)(F)F)NC(=O)c1ccc(S(=O)(=O)C(F)(F)F)cc1 [MPL-SO2, monepantel sulphone]
- potency compared with MPL ([9]; SRB proliferation assay): as potent as MPL
